Data reported in patent US20020049223A1, “Quinoline and naphthyridine carboxylic acid antibacterials” (priority 1999, published 2002).

Key:
Test in all cases: Assay B: in vitro antibacterial activity, broth microdilution MIC (NCCLS)
Format in all cases: cell-based
[1] = tested on: Enterococcus faecalis PIU 1967; details: Table 2, Assay B, cation-adjusted Mueller Hinton broth, 35° C., 16 to 20 hr; code B = Enterococcus faecalis PIU 1967; unit assumed
Method in brief: (§1)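 Serial two-fold dilutions in cation-adjusted Mueller Hinton broth; inoculum ~5×10^5 CFU/mL from overnight cultures; 35° C, ambient air, 16 to 20 hr. MIC read visually as lowest concentration completely inhibiting growth. S. pneumoniae: 3% lysed horse blood, 20 to 24 hr; H. influenzae: 5 g/L yeast extract, 0.3 mmol/L hematin, 15 mg/L NAD, 20 to 24 hr.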

[2] = tested on: Escherichia coli JUHL; details: Table 2, Assay B, cation-adjusted Mueller Hinton broth, 35° C., 16 to 20 hr; code D = Escherichia coli JUHL; unit assumed
Method in brief: as §1

[3] = tested on: Haemophilus influenzae DILL AMP R; details: Table 2, Assay B, Mueller Hinton broth with yeast extract, hematin and NAD, 20 to 24 hr; code E = Haemophilus influenzae DILL AMP R; unit assumed
Method in brief: as §1

[4] = tested on: Staphylococcus aureus ATCC 6538P; details: Table 2, Assay B, cation-adjusted Mueller Hinton broth, 35° C., 16 to 20 hr; code A = Staphylococcus aureus ATCC 6538P; unit assumed
Method in brief: as §1

[5] = tested on: Streptococcus pneumoniae ATCC 6303; details: Table 2, Assay B, Mueller Hinton broth with 3% lysed horse blood, 20 to 24 hr; code F = Streptococcus pneumoniae ATCC 6303; unit assumed
Method in brief: as §1

Row | Compound | Antibacterial Activity (MIC's), B [1] | Antibacterial Activity (MIC's), D [2] | Antibacterial Activity (MIC's), E [3] | Antibacterial Activity (MIC's), A [4] | Antibacterial Activity (MIC's), F [5]
1 | Cl.NC1CCCc2cc(-c3ccc4c(=O)c(C(=O)O)cn(C5CC5)c4c3)sc21 (centres unmarked) [Example 288, 7-(7-amino-4,5,6,7-tetrahydro-1-benzothien-2-yl)-1-cyclopropyl-4-oxo-1,4-dihydroquinoline-3-carboxylic acid hydrochloride] | 0.125 µg/mL | 0.03 µg/mL | 0.015 µg/mL | 0.03 µg/mL | 0.03 µg/mL
2 | CNC1CCCc2sc(-c3cc4c(cc3F)c(=O)c(C(=O)O)cn4C3CC3)cc21.Cl (centres unmarked) [Example 290, 1-cyclopropyl-6-fluoro-7-(4-(methylamino)-4,5,6,7-tetrahydro-1-benzothien-2-yl)-4-oxo-1,4-dihydroquinoline-3-carboxylic acid hydrochloride] | 0.125 µg/mL | 0.03 µg/mL | 0.015 µg/mL | 0.03 µg/mL | 0.03 µg/mL
3 | CNC1CCCc2sc(-c3c(F)cc4c(=O)c(C(=O)O)cn(C5CC5)c4c3F)cc21.Cl (centres unmarked) [Example 291, 1-cyclopropyl-6,8-difluoro-7-(4-(methylamino)-4,5,6,7-tetrahydro-1-benzothien-2-yl)-4-oxo-1,4-dihydroquinoline-3-carboxylic acid hydrochloride] | 0.125 µg/mL | 0.03 µg/mL | 0.015 µg/mL | 0.015 µg/mL | 0.03 µg/mL
4 | O=C(O)c1cn(C2CC2)c2cc(-c3cc4c(s3)C(O)CCC4)c(F)cc2c1=O (centres unmarked) [Example 293, 1-cyclopropyl-6-fluoro-7-(7-hydroxy-4,5,6,7-tetrahydro-1-benzothien-2-yl)-4-oxo-1,4-dihydroquinoline-3-carboxylic acid] | 0.008 µg/mL | 0.015 µg/mL | ≤ 0.004 µg/mL | ≤ 0.004 µg/mL | 0.03 µg/mL
5 | O=C(O)c1cn(C2CC2)c2c(F)c(-c3cc4c(s3)CCCC4O)c(F)cc2c1=O (centres unmarked) [Example 294, 1-cyclopropyl-6,8-difluoro-7-(4-hydroxy-4,5,6,7-tetrahydro-1-benzothien-2-yl)-4-oxo-1,4-dihydroguinoline-3-carboxylic acid] | 0.015 µg/mL | 0.03 µg/mL | ≤ 0.004 µg/mL | ≤ 0.004 µg/mL | 0.03 µg/mL
6 | O=C(O)c1cn(C2CC2)c2c(F)c(-c3cc4c(s3)C(O)CCC4)c(F)cc2c1=O (centres unmarked) [Example 295, 1-cyclopropyl-6,8-difluoro-7-(7-hydroxy-4,5,6,7-tetrahydro-1-benzothien-2-yl)-4-oxo-1,4-dihydroquinoline-3-carboxylic acid] | 0.008 µg/mL | 0.03 µg/mL | ≤ 0.004 µg/mL | ≤ 0.004 µg/mL | 0.03 µg/mL
7 | O=C(O)c1cn(C2CC2)c2cc(-c3cc4c(s3)CCCC4O)c(F)cc2c1=O (centres unmarked) [Example 296, 1-cyclopropyl-6-fluoro-7-(4-hydroxy-4,5,6,7-tetrahydro-1-benzothien-2-yl)-4-oxo-1,4-dihydroquinoline-3-carboxylic acid] | 0.25 µg/mL | 0.5 µg/mL | 0.06 µg/mL | ≤ 0.004 µg/mL | 0.5 µg/mL
8 | COc1c(-c2cc3c(s2)C(O)CCC3)c(F)cc2c(=O)c(C(=O)O)cn(C3CC3)c12 (centres unmarked) [Example 299, 1-cyclopropyl-6-fluoro-7-(7-hydroxy-4,5,6,7-tetrahydro-1-benzothien-2-yl)-8-methoxy-4-oxo-1,4-dihydroquinoline-3-carboxylic acid] | 0.06 µg/mL | 0.125 µg/mL | 0.03 µg/mL | ≤ 0.004 µg/mL | 0.06 µg/mL
9 | Cl.NC1CCCc2sc(-c3cc4c(cc3F)c(=O)c(C(=O)O)cn4C3CC3)cc21 (centres unmarked) [Example 307, 7-(4-amino-4,5,6,7-tetrahydro-1-benzothien-2-yl)-1-cyclopropyl-6-fluoro-4-oxo-1,4-dihydroquinoline-3-carboxylic acid hydrochloride] | 0.03 µg/mL | 0.03 µg/mL | 0.015 µg/mL | 0.008 µg/mL | 0.008 µg/mL
10 | Cl.NC1CCCc2sc(-c3c(F)cc4c(=O)c(C(=O)O)cn(C5CC5)c4c3F)cc21 (centres unmarked) [Example 308, 7-(4-amino-4,5,6,7-tetrahydro-1-benzothien-2-yl)-1-cyclopropyl-6,8-difluoro-4-oxo-1,4-dihydroquinoline-3-carboxylic acid hydrochloride] | 0.03 µg/mL | 0.03 µg/mL | 0.015 µg/mL | 0.008 µg/mL | 0.015 µg/mL
11 | Cl.NC1CCCc2cc(-c3c(F)cc4c(=O)c(C(=O)O)cn(C5CC5)c4c3F)sc21 (centres unmarked) [Example 309, 7-(7-amino-4,5,6,7-tetrahydro-1-benzothien-2-yl)-1-cyclopropyl-6,8-difluoro-4-oxo-1,4-dihydroquinoline-3-carboxylic acid hydrochloride] | 0.06 µg/mL | 0.03 µg/mL | 0.015 µg/mL | 0.015 µg/mL | 0.06 µg/mL
12 | Cl.NC1CCCc2cc(-c3cc4c(cc3F)c(=O)c(C(=O)O)cn4C3CC3)sc21 (centres unmarked) [Example 310, 7-(7-amino-4,5,6,7-tetrahydro-1-benzothien-2-yl)-1-cyclopropyl-6-fluoro-4-oxo-1,4-dihydroquinoline-3-carboxylic acid hydrochloride] | 0.015 µg/mL | 0.015 µg/mL | 0.015 µg/mL | 0.008 µg/mL | 0.008 µg/mL
13 | O=C(O)c1cn(C2CC2)c2c(Cl)c(-c3cc4c(s3)C(O)CCC4)ccc2c1=O (centres unmarked) [Example 315, 8-chloro-1-cyclopropyl-7-(7-hydroxy-4,5,6,7-tetrahydro-1-benzothien-2-yl)-4-oxo-1,4-dihydroquinoline-3-carboxylic acid] | 0.06 µg/mL | 0.125 µg/mL | 0.008 µg/mL | 0.008 µg/mL | 0.125 µg/mL
14 | Cc1c(-c2cc3c(s2)CCCC3O)c(F)cc2c(=O)c(C(=O)O)cn(C3CC3)c12 (centres unmarked) [Example 316, 1-cyclopropyl-6-fluoro-7-(4-hydroxy-4,5,6,7-tetrahydro-1-benzothien-2-yl)-8-methyl-4-oxo-1,4-dihydroquinoline-3-carboxylic acid] | 0.06 µg/mL | 0.06 µg/mL | ≤ 0.004 µg/mL | ≤ 0.004 µg/mL | 0.03 µg/mL
15 | CNC1CCCc2sc(-c3c(F)cc4c(=O)c(C(=O)O)cn(C5CC5)c4c3C)cc21.Cl (centres unmarked) [Example 317, 1-cyclopropyl-6-fluoro-8-methyl-7-(4-(methylamino)-4,5,6,7-tetrahydro-1-benzothien-2-yl)-4-oxo-1,4-dihydroquinoline-3-carboxylic acid hydrochloride] | 0.06 µg/mL | 0.06 µg/mL | 0.03 µg/mL | 0.03 µg/mL | 0.03 µg/mL
16 | Nc1c(F)c(-c2cc3c(s2)C(O)CCC3)c(F)c2c1c(=O)c(C(=O)O)cn2C1CC1 (centres unmarked) [Example 319, 5-amino-1-cyclopropyl-6,8-difluoro-7-(7-hydroxy-4,5,6,7-tetrahydro-1-benzothien-2-yl)-4-oxo-1,4-dihydroquinoline-3-carboxylic acid] | 0.06 µg/mL | 0.06 µg/mL | 0.015 µg/mL | ≤ 0.004 µg/mL | 0.03 µg/mL
17 | Cc1c(-c2cc3c(s2)CCCC3N)c(F)cc2c(=O)c(C(=O)O)cn(C3CC3)c12.Cl (centres unmarked) [Example 321, 7-(4-amino-4,5,6,7-tetrahydro-1-benzothien-2-yl)-1-cyclopropyl-6-fluoro-8-methyl-4-oxo-1,4-dihydroquinoline-3-carboxylic acid hydrochloride] | 0.015 µg/mL | 0.015 µg/mL | ≤ 0.004 µg/mL | ≤ 0.004 µg/mL | ≤ 0.004 µg/mL
18 | Cl.NC1CCCc2cc(-c3cc(F)c4c(=O)c(C(=O)O)cn(C5CC5)c4c3F)sc21 (centres unmarked) [Example 326, 7-(7-amino-4,5,6,7-tetrahydro-1-benzothien-2-yl)-1-cyclopropyl-5,8-difluoro-4-oxo-1,4-dihydroquinoline-3-carboxylic acid hydrochloride] | 0.25 µg/mL | 0.125 µg/mL | 0.015 µg/mL | 0.125 µg/mL | 0.125 µg/mL
19 | Cl.NC1CCCc2sc(-c3ccc4c(=O)c(C(=O)O)cn(C5CC5)c4c3Cl)cc21 (centres unmarked) [Example 329, 7-(4-amino-4,5,6,7-tetrahydro-1-benzothien-2-yl)-8-chloro-1-cyclopropyl-4-oxo-1,4-dihydroquinoline-3-carboxylic acid hydrochloride] | 0.03 µg/mL | 0.03 µg/mL | 0.008 µg/mL | ≤ 0.004 µg/mL | 0.008 µg/mL
